Measured values as given in patent US20230278972A1, “SUBSTITUTED HALOALKYL SULFONANILIDE HERBICIDES” (FMC Corporation, priority 2020, published 2023).

Tests used:
Format in all cases: in vivo
[1] = test system: barnyardgrass (Echinochloa crus-galli); assay: Test A preemergence, barnyardgrass; details: Preemergence; for Barnyardgrass plant response rating: 125 g ai/ha, visual injury on 0 to 100 scale (0 no effect, 100 complete control), approximately 10 days; for Plant response rating, Barnyardgrass: 500 g ai/ha, 0 to 100 scale (0 no effect, 100 complete control)
Procedure, shortened: (§1)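 Formulated with a surfactant in a non-phytotoxic solvent, compounds are applied to loam–sand pots, either to bare soil immediately after seeding (preemergence) or to seedlings of 2 to 10 cm bearing one to two leaves (postemergence).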

kochia (Bassia scoparia) [2] = assay: Test A preemergence, kochia; details: Preemergence; for Kochia plant response rating: 125 g ai/ha, visual injury on 0 to 100 scale (0 no effect, 100 complete control), approximately 10 days; for Plant response rating, Kochia: 500 g ai/ha, 0 to 100 scale (0 no effect, 100 complete control)
Procedure, shortened: as §1

[3] = test system: ragweed (common ragweed, Ambrosia artemisiifolia); assay: Test A preemergence, ragweed; details: Preemergence; for Ragweed plant response rating: 125 g ai/ha, visual injury on 0 to 100 scale (0 no effect, 100 complete control), approximately 10 days; for Plant response rating, Ragweed: 500 g ai/ha, 0 to 100 scale (0 no effect, 100 complete control)
Procedure, shortened: as §1

[4] = test system: Ryegrass, Italian (Italian ryegrass, Lolium multiflorum); assay: Test A preemergence, Ryegrass, Italian; details: Preemergence; for Ryegrass, Italian plant response rating: 125 g ai/ha, visual injury on 0 to 100 scale (0 no effect, 100 complete control), approximately 10 days; for Plant response rating, Ryegrass, Italian: 500 g ai/ha, 0 to 100 scale (0 no effect, 100 complete control)
Procedure, shortened: as §1

[5] = test system: Foxtail, Giant (giant foxtail, Setaria faberi); assay: Test A preemergence, Foxtail, Giant; details: Preemergence; for Foxtail, Giant plant response rating: 125 g ai/ha, visual injury on 0 to 100 scale (0 no effect, 100 complete control), approximately 10 days; for Plant response rating, Foxtail, Giant: 500 g ai/ha, 0 to 100 scale (0 no effect, 100 complete control)
Procedure, shortened: as §1

[6] = test system: pigweed (Amaranthus retroflexus); assay: Test A preemergence, pigweed; details: for Pigweed plant response rating: 125 g ai/ha, visual injury on 0 to 100 scale (0 no effect, 100 complete control), approximately 10 days; for Plant response rating, Pigweed: 500 g ai/ha, 0 to 100 scale (0 no effect, 100 complete control)
Procedure, shortened: (§2)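 Preemergence: pigweed seeds in loam soil–sand blend received a directed soil spray of test chemicals in a non-phytotoxic solvent with surfactant. Postemergence: barnyardgrass, wheat and galium in pots of the same soil, 2 to 10 cm tall at one- to two-leaf stage, sprayed with the same formulation.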

[7] = test system: barnyardgrass (Echinochloa crus-galli); assay: Test A postemergence, barnyardgrass; details: Postemergence, 0 to 100 scale (0 no effect, 100 complete control); for Plant response rating, Barnyardgrass: 125 g ai/ha, visual injury approx. 10 days; for Barnyardgrass plant response rating: 500 g ai/ha, visual injury vs untreated controls after approx. 10 days
Procedure, shortened: as §2

kochia (Bassia scoparia) [8] = assay: Test A postemergence, kochia; details: Postemergence, 0 to 100 scale (0 no effect, 100 complete control); for Plant response rating, Kochia: 125 g ai/ha, visual injury approx. 10 days; for Kochia plant response rating: 500 g ai/ha, visual injury vs untreated controls after approx. 10 days
Procedure, shortened: as §1

[9] = test system: ragweed (common ragweed, Ambrosia artemisiifolia); assay: Test A postemergence, ragweed; details: Postemergence, 0 to 100 scale (0 no effect, 100 complete control); for Plant response rating, Ragweed: 125 g ai/ha, visual injury approx. 10 days; for Ragweed plant response rating: 500 g ai/ha, visual injury vs untreated controls after approx. 10 days
Procedure, shortened: as §1

[10] = test system: Ryegrass, Italian (Italian ryegrass, Lolium multiflorum); assay: Test A postemergence, Ryegrass, Italian; details: Postemergence, 0 to 100 scale (0 no effect, 100 complete control); for Plant response rating, Ryegrass, Italian: 125 g ai/ha, visual injury approx. 10 days; for Ryegrass, Italian plant response rating: 500 g ai/ha, visual injury vs untreated controls after approx. 10 days
Procedure, shortened: as §1

[11] = test system: Foxtail, Giant (giant foxtail, Setaria faberi); assay: Test A postemergence, Foxtail, Giant; details: Postemergence, 0 to 100 scale (0 no effect, 100 complete control); for Plant response rating, Foxtail, Giant: 125 g ai/ha, visual injury approx. 10 days; for Foxtail, Giant plant response rating: 500 g ai/ha, visual injury vs untreated controls after approx. 10 days
Procedure, shortened: as §1

[12] = test system: pigweed (Amaranthus retroflexus); assay: Test A postemergence, pigweed; details: Postemergence, 0 to 100 scale (0 no effect, 100 complete control); for Plant response rating, Pigweed: 125 g ai/ha, visual injury approx. 10 days; for Pigweed plant response rating: 500 g ai/ha, visual injury vs untreated controls after approx. 10 days
Procedure, shortened: as §1

[13] = test system: wheat (Triticum aestivum); assay: Test A postemergence, wheat; details: Postemergence, 0 to 100 scale (0 no effect, 100 complete control); for Plant response rating, Wheat: 125 g ai/ha, visual injury approx. 10 days; for Wheat plant response rating: 500 g ai/ha, visual injury vs untreated controls after approx. 10 days
Procedure, shortened: as §2

corn (Zea mays) = assay: Test A postemergence, corn; details: Postemergence, 0 to 100 scale (0 no effect, 100 complete control); for Plant response rating, Corn: 125 g ai/ha, visual injury approx. 10 days; for Corn plant response rating: 500 g ai/ha, visual injury vs untreated controls after approx. 10 days
Procedure, shortened: as §1

[14] = test system: blackgrass (Alopecurus myosuroides); assay: Test A postemergence, blackgrass; details: Postemergence, 0 to 100 scale (0 no effect, 100 complete control); for Plant response rating, Blackgrass: 125 g ai/ha, visual injury approx. 10 days; for Blackgrass plant response rating: 500 g ai/ha, visual injury vs untreated controls after approx. 10 days
Procedure, shortened: as §1

[15] = test system: galium (catchweed bedstraw, Galium aparine); assay: Test A postemergence, galium; details: Postemergence, 0 to 100 scale (0 no effect, 100 complete control); for Plant response rating, Galium: 125 g ai/ha, visual injury approx. 10 days; for Galium plant response rating: 500 g ai/ha, visual injury vs untreated controls after approx. 10 days
Procedure, shortened: as §2

CCn1cc(-c2cc(NS(=O)(=O)C(F)(F)F)c(C)cc2C)c(=O)n(CC)c1=O [Compound 44]
Barnyardgrass plant response rating [1]: 100 | Plant response rating, Barnyardgrass [1]: 100 | Kochia plant response rating (kochia (Bassia scoparia) [2]): 0 | Plant response rating, Kochia (kochia (Bassia scoparia) [2]): 60 | Ragweed plant response rating [3]: 0 | Plant response rating, Ragweed [3]: 10 | Ryegrass, Italian plant response rating [4]: 100 | Plant response rating, Ryegrass, Italian [4]: 100 | Foxtail, Giant plant response rating [5]: 100 | Plant response rating, Foxtail, Giant [5]: 100 | Pigweed plant response rating [6]: 40 | Plant response rating, Pigweed [6]: 100 | Plant response rating, Barnyardgrass [7]: 90 | Barnyardgrass plant response rating [7]: 90 | Plant response rating, Kochia (kochia (Bassia scoparia) [8]): 10 | Kochia plant response rating (kochia (Bassia scoparia) [8]): 30 | Plant response rating, Ragweed [9]: 20 | Ragweed plant response rating [9]: 50 | Plant response rating, Ryegrass, Italian [10]: 30 | Ryegrass, Italian plant response rating [10]: 30 | Plant response rating, Foxtail, Giant [11]: 90 | Foxtail, Giant plant response rating [11]: 90 | Plant response rating, Pigweed [12]: 80 | Pigweed plant response rating [12]: 90 | Plant response rating, Wheat [13]: 70 | Wheat plant response rating [13]: 70 | Plant response rating, Corn (corn (Zea mays)): 0 | Corn plant response rating (corn (Zea mays)): 70 | Plant response rating, Blackgrass [14]: 80 | Blackgrass plant response rating [14]: 90 | Plant response rating, Galium [15]: 80 | Galium plant response rating [15]: 90

CCn1nc(Cl)cc(-c2cc(N(S(C)(=O)=O)S(=O)(=O)C(F)(F)F)c(C)cc2C)c1=O [Compound 45]
Barnyardgrass plant response rating [1]: 90 | Plant response rating, Barnyardgrass [1]: 100 | Kochia plant response rating (kochia (Bassia scoparia) [2]): 70 | Plant response rating, Kochia (kochia (Bassia scoparia) [2]): 100 | Ragweed plant response rating [3]: 60 | Plant response rating, Ragweed [3]: 80 | Ryegrass, Italian plant response rating [4]: 80 | Plant response rating, Ryegrass, Italian [4]: 100 | Foxtail, Giant plant response rating [5]: 100 | Plant response rating, Foxtail, Giant [5]: 100 | Pigweed plant response rating [6]: 60 | Plant response rating, Pigweed [6]: 90 | Plant response rating, Barnyardgrass [7]: 20 | Barnyardgrass plant response rating [7]: 70 | Plant response rating, Kochia (kochia (Bassia scoparia) [8]): 10 | Kochia plant response rating (kochia (Bassia scoparia) [8]): 50 | Plant response rating, Ragweed [9]: 20 | Ragweed plant response rating [9]: 70 | Plant response rating, Ryegrass, Italian [10]: 50 | Ryegrass, Italian plant response rating [10]: 90 | Plant response rating, Foxtail, Giant [11]: 0 | Foxtail, Giant plant response rating [11]: 60 | Plant response rating, Pigweed [12]: 30 | Pigweed plant response rating [12]: 70 | Plant response rating, Wheat [13]: 40 | Wheat plant response rating [13]: 70 | Plant response rating, Corn (corn (Zea mays)): 10 | Corn plant response rating (corn (Zea mays)): 30 | Plant response rating, Blackgrass [14]: 0 | Blackgrass plant response rating [14]: 60 | Plant response rating, Galium [15]: 10 | Galium plant response rating [15]: 40

Cc1cc(C)c(N(S(C)(=O)=O)S(=O)(=O)C(F)(F)F)cc1-c1cc(Cl)nn(C)c1=O [Compound 46]
Barnyardgrass plant response rating [1]: 0 | Plant response rating, Barnyardgrass [1]: 70 | Kochia plant response rating (kochia (Bassia scoparia) [2]): 0 | Plant response rating, Kochia (kochia (Bassia scoparia) [2]): 0 | Ragweed plant response rating [3]: 0 | Plant response rating, Ragweed [3]: 0 | Ryegrass, Italian plant response rating [4]: 50 | Plant response rating, Ryegrass, Italian [4]: 80 | Foxtail, Giant plant response rating [5]: 90 | Plant response rating, Foxtail, Giant [5]: 90 | Pigweed plant response rating [6]: 0 | Plant response rating, Pigweed [6]: 50 | Plant response rating, Barnyardgrass [7]: 0 | Barnyardgrass plant response rating [7]: 0 | Plant response rating, Kochia (kochia (Bassia scoparia) [8]): 0 | Kochia plant response rating (kochia (Bassia scoparia) [8]): 0 | Plant response rating, Ragweed [9]: 0 | Ragweed plant response rating [9]: 0 | Plant response rating, Ryegrass, Italian [10]: 0 | Ryegrass, Italian plant response rating [10]: 0 | Plant response rating, Foxtail, Giant [11]: 0 | Foxtail, Giant plant response rating [11]: 0 | Plant response rating, Pigweed [12]: 0 | Pigweed plant response rating [12]: 0 | Plant response rating, Wheat [13]: 0 | Wheat plant response rating [13]: 50 | Plant response rating, Corn (corn (Zea mays)): 0 | Corn plant response rating (corn (Zea mays)): 0 | Plant response rating, Blackgrass [14]: 0 | Blackgrass plant response rating [14]: 0 | Plant response rating, Galium [15]: 0 | Galium plant response rating [15]: 0
